The test system of experiment [1] is pancreatic organoids derived from BRCA2 gene-deleted mice (Brca2^F11/F11; CreER™). The experiment is described as follows: Drug responsiveness of pancreatic organoids with normal or exon 11-deleted BRCA2, observed with an inverted microscope. The class given is cell-based, mouse. The settings on record: alone or in combination with 200 nM TSA, with vs without BRCA2 exon 11 deletion, FIG. 6. As for the experimental part: With reference to the method of Example 2 above, pancreatic organoids derived from BRCA2 gene-deleted mice (Brca2^F11/F11; CreER™) were prepared. To induce a partial deletion of BRCA2 gene (deletion of exon 11 of BRCA2 gene), 4-hydroxytamoxifen (4-OHT) was added to the organoids in an amount of 400 nM, and the resulting organoids were cultured for 3 weeks or more (see Example 2). For comparison, organoids not treated with 4-OHT (in which BRCA2 gene is normal) were also prepared.
Organoids having normal BRCA2 gene (not treated with 4-OHT) and organoids with a partial deletion of BRCA2 (exon 11 deletion) were seeded in equal amounts into 24-well plates. On the day after seeding, the organoids were treated with a mixture of the anticancer agent histone deacetylase inhibitor (HDACi) and a culture medium (see Example 2).
3 days after treatment (first treatment) with HDACi, the culture medium was replaced with a fresh medium, and treatment (second treatment) with each HDACi was performed again at the concentration shown in Table 3. Here, the primary treatment with HDACi was performed about 24 to 48 hours after seeding of the organoids, and 3 days after that, the second treatment was performed.

Experiment [2] concerns pancreatic organoids from Kras^G12D mutant mice. In kind it is cell-based, mouse. The following applies: FIG. 14A.
Protocol: The organoids were treated with 0 μM, 200 μM or 500 μM of the drug, followed by analysis of GFP (see FIG. 14A).
Experiment [3] concerns normal pancreatic organoids. The experiment is described as follows: Effect of Resveratrone on normal organoids. In kind it is cell-based, mouse. The settings on record: 0, 200 or 500 μM. As to the method: Pancreatic tissue isolated from the genetically mutated mice described in Examples 1 to 7 above was dissociated. Cell pellets containing ductal cells were collected from the dissociated pancreatic tissue. The collected cell pellets were grown with a biomatrix in a cell incubator at 37° C. under 5% CO2. Thereafter, the produced organoids were grown in an organoid culture medium until 75% or more thereof grew to a diameter of 200 to 500 μm. […] The organoids were treated with a drug diluted in an organoid culture medium. […] As a result of the measurement, it could be confirmed that, when the above-described drug treatment method was used, it was possible to track the drug responsiveness of each organoid, which was a limitation of a conventional drug screening method using organoids, and drug treatment in a uniform size state was possible. […] As the maximum value of the average diameter of the collected organoids increases, the difference in size (average diameter) between the organoids included increases, so that the difference in responsiveness to the same drug between the organoids increases. Thus, in order to obtain a uniform drug responsiveness result, it is important to determine the upper limit of the size (average diameter) of the organoids. […]

The subject of experiment [4] is mouse-derived normal organoids. The experiment is described as follows: p53 expression level by Western blot, normal organoids. The class given is cell-based. The following applies: two treatments 72 hours apart, day 5 after primary treatment; FIG. 15. As for the experimental part: (§1) The mouse-derived organoids described in Examples 1 to 7 or patient-derived organoids were primarily treated with a drug, and after 72 hours, secondarily treated with the drug. As the drug, Resveratrone used in Examples 9 and 10 was used. On day 2 after the secondary drug treatment (day 5 after the primary drug treatment), the cell culture medium was removed, and then the cells were washed with 1 ml of PBS. After removal of PBS, the cells were mechanically dissociated with 500 μl of a recovery solution. The cell solution was agitated at 50 to 70 rpm at 4° C. for 1 hour, transferred into a microtube, and then centrifuged at 1200 rpm for 5 minutes, followed by removal of the supernatant. The remaining pellet was lysed with NETN buffer, and then sonicated using a sonicator for 1 minute with an output of 2 to 3 and centrifuged at 12,000 rpm for 20 to 30 minutes, and the supernatant was collected. The supernatant was quantified to 100 to 120 μg using Bradford assay, and then loaded onto a 10% polyacrylamide gel, followed by SD S-PAGE (Sodium Dodecyl Sulfate-Polyacrylamide gel electrophoresis) gel running. Then, the gel was transferred to a nitrocellulose membrane, and the transferred membrane was blocked with 5% skim milk while stirring at 50 rpm for 1 hour at RT. […]

Experiment [5] concerns mutant organoids (cancer-like). The experiment in a line: p53 expression level by Western blot, mutant organoids. The class given is cell-based, mouse. The following applies: two treatments 72 hours apart, day 5 after primary treatment; FIG. 15. As for the experimental part:
as §1
Background: A western blot detects proteins with antibodies after separation by electrophoresis.

In experiment [6] the test system is patient-derived organoids. The experiment in a line: p53 expression level by Western blot, patient-derived organoids. The settings on record: two treatments 72 hours apart, day 5 after primary treatment; FIG. 15. The class given is cell-based, human. As to the method: as §1

On to `CC[C@@H]1C(=O)N(C)c2cnc(Nc3ccc(C(=O)NC4CCN(C)CC4)cc3OC)nc2N1C1CCCC1` [BI2536], for which the “responsiveness to the tested drugs (state of the organoids)” value in experiment [1] (10 nM) is given as “did differ depending on the presence or absence of the BRCA2 gene”.
On to `CC(=O)/C=C/c1ccc2cc(O)cc(O)c2c1` [Resveratrone], for which the “GFP / green fluorescence of dying cells” value in experiment [2] (200 μM) is listed as “exhibited fluorescence”. For the same compound, the “GFP / cell death” value in experiment [2] (500 μM) is “cell death occurred and GFP decreased”. Further, in experiment [3], the “effect of the drug on normal pancreatic organoids” value is “no effect”. In addition, the “expression level of p53” value in experiment [4] was “increased”; in experiment [5], “did not increase”. The “expression level of p53, normal vs cancer tendency” value in experiment [6] is listed as “this tendency was also found in the patient-derived organoids”.
With `O=C(c1cc(Cc2n[nH]c(=O)c3ccccc23)ccc1F)N1CCN(C(=O)C2CC2)CC1` [Olaparib], in experiment [1] (10 μM), the “responsiveness to the tested drugs (state of the organoids)” value is “did differ depending on the presence or absence of the BRCA2 gene”.

Source of the values: patent US20210282378A1, “Mutant Mouse-Derived Pancreatic Organoid and Method for Evaluating Standardized Drug for Efficacy” (Seoul National University R&DB Foundation, priority 2018, published 2021).
